Assay results taken from patent US20040013696A1, “Use of ellagic acid as an anti-pollution cosmetic agent” (priority 2000, published 2004).

Experiments:
human keratinocytes [1] = assay: Covalent binding of 14C-benzo[a]pyrene to cell proteins (alkylation of nucleophiles); format: cell-based
Text: Polycyclic aromatic hydrocarbons (PAHs), adsorbed onto the surface of particles and dust conveyed by the urban atmosphere, can penetrate into skin tissue and be biotransformed therein. Their metabolism in the liver, which is well-described in the literature, leads to the formation of monohydroxylated metabolites (detoxification pathway), epoxides and diol epoxides (toxifying pathway). It follows the same profile in the skin. […] After consequent or repeated exposures to the pollutant, its potential toxicity can lead to a contact hypersensitivity in the case of the alkylation of proteins. […] The cells are inoculated on D-3 into 6-well dishes at a rate of 53 000 cells/cm^2. The incubations are performed at 37° C. in humid atmosphere enriched with 5% CO2. […] The covalent binding to cell proteins is measured according to the protocol of Hoellinger et al., adapted to a filtration method in 96-well microplates (H. Hoellinger, M. Sonnier, J. Gray, T. A. Connors, J. Pichon and N. H. Nam. In vitro covalent binding of […], bioresmethrin and their common alcohol to hepatic proteins. Toxicol. Appl. Pharmacol., 1985, 77, 11-18). […] The aim of this series of washes is to remove from the proteins any radioactivity not covalently bound. […] Samples are then taken to assay the proteins and count the radioactivity of the solution. The results are expressed as nmol of B[a]P bound per mg of proteins.

human keratinocytes [2] = tested on: human keratinocytes
Protocol: The study was performed on a monolayer culture of human keratinocytes obtained from plastic surgeries. The cells are inoculated on D-3 into 96-well dishes at a rate of 25 000 cells/cm^2 in 100 μl of culture medium. The incubations are performed at 37° C. in a humid atmosphere enriched with 5% CO2.
Initially, the cells are treated for 24 hours with increasing concentrations (0, 10, 25, 50, 75, 100, 150 and 200 μM) of cadmium chloride (CdCl2), so as to determine its cytotoxicity. […]
At the end of the treatment, the cell viability is determined by means of the neutral red incorporation test (POS 55/006) and reading at 550 nm (ref: Borenfreund, E and Puerner, J. A. (1984) A simple quantitative procedure using monolayer cultures for cytotoxicity assays. Tissue Culture Methods; 9: 7-9).
The cells are rinsed with PBS buffer in order to remove the treatment solutions, and are then incubated for three hours at 37° C. in a neutral red solution (100 μl) prepared to a concentration of 0.5 mg/ml in the culture medium. […] The amount extracted is determined by reading the optical density on a spectrophotometer at 550 nm.
The concentration of CdCl2 that induces a 50% drop in the cell viability (IC-50) is then calculated.

human keratinocytes [3] = assay: Protection against the effects of ozone: ozone-induced lipid hydroperoxides (DCFH-DA fluorescence); format: cell-based; conditions: ellagic acid 200 μM; for % fluorescence observed ± SEM, relative to the unprotected controls: ozone 10 ppm
Protocol: Ozone has the capacity to oxidize cell constituents, especially generating carbonylated proteins and lipid hydroperoxides. Quantification of the lipid hydroperoxides is one means of measuring the oxidative stress induced by an exposure of skin tissue to this pollutant. A decrease in their content indicates a protective effect of ellagic acid. […] The incubations are performed at 37° C., 5% CO2 in humid atmosphere. […] Hydroperoxides constitute an intracellular stress marker. They are detected and quantified by means of a fluorescence technique (Lebel C. P., Ischiropoulos H. and Bondy S. C. […] Chem. Res. Toxicol.: 5: 227-231). […] The cells, pretreated for 24 hours with ellagic acid, are then washed with phosphate-buffered saline (PBS) and placed in contact for 30 minutes with a solution of DCFH-DA (500 μl/well), prepared in the culture medium to a concentration of 320 μM. […] They are then exposed to ozone (10 ppm), in a humid atmosphere, in an incubator set at 37° C. The formation of fluorescent DCF (excitation screen at 485 nm and emission screen at 530 nm) resulting from the production of hydroperoxides is measured after different times of exposure to ozone: 0, 5, 10 and 20 minutes. […] For each time, the fluorescence values of the unprotected controls are set at 100%. The resulting values in the presence of ellagic acid are then expressed relative to this control value. […] This protection is at a maximum from 5 minutes of exposure onward (71.8% drop in induced stress). It is still significant after 20 minutes of exposure (47.7% drop in induced stress).

Structure (SMILES): c1ccc2c(c1)cc1ccc3cccc4ccc2c1c34 [B (a) P, benzo(a)pyrene, reference compound]
- covalent binding to keratinocyte proteins (human keratinocytes [1]; benzo(a)pyrene alone at 20 μM): 0.28 nmol of B(a)P per mg of protein

Structure (SMILES): [Cl][Cd][Cl] [cadmium chloride, reference compound]
- IC50 (human keratinocytes [2]; read-out: IC-50 of cadmium chloride, Mean ± SEM, without ellagic acid, 24 hours, n=4): 39 µM

Structure (SMILES): O=c1oc2c(O)c(O)cc3c(=O)oc4c(O)c(O)cc1c4c23 [ellagic acid, 2,3,7,8-tetrahydroxy-(1)benzopyrano(5,4,3-cde)(1)benzopyran-5,10-dione]
- drop in induced stress (human keratinocytes [3]; 5 minutes of exposure to ozone): 71.8%
- drop in induced stress (human keratinocytes [3]; 20 minutes of exposure to ozone): 47.7%
- % fluorescence observed ± SEM, relative to the unprotected controls (human keratinocytes [3]; 5 min. of contact): 28.2 ± 3.3%
- % fluorescence observed ± SEM, relative to the unprotected controls (human keratinocytes [3]; 10 min. of contact): 36.3 ± 3.4%
- % fluorescence observed ± SEM, relative to the unprotected controls (human keratinocytes [3]; 20 min. of contact): 52.3 ± 4.4%
- maximum dose of ellagic acid noncytotoxic to the cells (human keratinocytes [2]; human, 24 h): 200 µM
- reduction in the reactivity of B(a)P by a factor (human keratinocytes [1]; in the presence of ellagic acid 100 μM): 3.1
